In patent US20030181527A1, “Novel formulations of alpha-2,4-disulfophenyl-n-tert-butylnitrone” (priority 2000, published 2003):
“Also recorded” adds a separate entry of the source.

Legend:
Assay type in all cases: physicochemical
[1] = Stability with air or nitrogen filled headspaces (Table 5); conditions: 400 mg/ml
Procedure: A 400 mg/ml concentrate of α-(2,4-disulfophenyl)-N-tert-butylnitrone disodium salt was prepared by adding α-(2,4-disulfophenyl)-N-tert-butylnitrone disodium salt (1500 g) to water for injection (2200 ml) containing dissolved disodium hydrogen phosphate dihydrate (3.51 g). The solution was then adjusted to pH 8.5 by the addition of 2M sodium hydroxide solution and then water for injection was added to give a final volume of 3750 ml. After preparation, the solution was purged with nitrogen for 90 minutes and then placed in 10 ml glass vials with a fill volume of 7.7 ml. Before stoppering the vials, the headspace was purged with nitrogen. […] The vials were stored either at +5° C. at ambient humidity or at +25° C. and 60% relative humidity.
A second batch of 400 mg/ml concentrate of α-(2,4-disulfophenyl)-N-tert-butylnitrone disodium salt buffered with 50 mM phosphate buffer was treated identically except that the headspace was filled with air not nitrogen and the fill volume was 10.5 ml.

[2] = Photodegradation of aqueous solutions under indoor light; conditions: 400 mg/ml aqueous concentrate, room temperature, 8 hours, disodium salt
[3] = Effect of concentration on stability, carbonate-buffered solutions, 40 days +40° C.; conditions: 50 mM sodium hydrogen carbonate; for Final Amount of Aldehyde (II): 40 days +40° C./75% RH
Procedure: In an experiment, aqueous solutions of three different concentrations of α-(2,4-disulfophenyl)-N-tert-butylnitrone disodium salt buffered with sodium hydrogen carbonate (50 mM) were dispensed into 20 ml glass vials, sealed, and then stored for 40 days at +40° C. and 75% relative humidity.

[4] = Effect of concentration on stability, unbuffered solutions at +5° C.
Procedure: In a second study unbuffered aqueous solutions of α-(2,4-disulfophenyl)-N-tert-butylnitrone disodium salt (concentration either 100 mg/ml or 200 mg/ml) were dispensed into 50 ml glass vials and stored at +5° C.

[5] = Effect of concentration on stability, phosphate-buffered solutions at +5° C.; conditions: 50 mM phosphate buffer
Procedure: In a third study aqueous solutions of α-(2,4-disulfophenyl)-N-tert-butylnitrone disodium salt (concentration either 200 mg/ml or 400 mg/ml) buffered with phosphate buffer (50 mM) were dispensed into 10 ml glass vials and stored at +5° C.

[6] = Effect of pH on stability of diluted 4 mg/ml solutions at room temperature
Description: The pH dependent degradation of aqueous solutions of α-(2,4-disulfophenyl)-N-tert-butylnitrone disodium salt has been extensively studied. […] Both solutions, which were obtained by appropriate dilution of a corresponding concentrate, were stored at room temperature under conditions that would reasonably simulate a diluted concentrate prepared ready for administration to patients.

[7] = Effect on pH and stability of dilution of aqueous concentrates in 0.9% sodium chloride; conditions: 400 mg/ml concentrate, 7 ml diluted in 500 ml 0.9% NaCl, room temperature
Procedure: Three batches of an aqueous concentrate of α-(2,4-disulfophenyl)-N-tert-butylnitrone disodium salt (400 mg/ml) were prepared and adjusted to pH 8.5. One concentrate was unbuffered and the other two concentrates were buffered with respectively 2.6 or 26 mM disodium hydrogen phosphate. In each case a 7 ml portion of the concentrate was transferred into 0.9% sodium chloride solution (500 ml) contained in a PVC bag. The bags were the stored at room temperature, protected from light, for 48 hours. Samples were taken out at 0, 24 and 48 hours and analysed.

[8] = unbuffered 100 mg/ml, 12 months
[9] = unbuffered 200 mg/ml, 12 months
[10] = 4 mg/ml buffered with phosphate (0.53 mM), 0 days
[11] = 4 mg/ml buffered with phosphate (0.53 mM), 1 day
[12] = 4 mg/ml buffered with phosphate (0.53 mM), 2 days
[13] = 4 mg/ml buffered with phosphate (0.53 mM), 5 days
[14] = 4 mg/ml buffered with phosphate (0.53 mM), 7 days
[15] = 4 mg/ml unbuffered solution, 0 days
[16] = 4 mg/ml unbuffered solution, 1 day
[17] = 4 mg/ml unbuffered solution, 2 days
[18] = 4 mg/ml unbuffered solution, 5 days
[19] = 4 mg/ml unbuffered solution, 7 days

SMILES: CC(C)(C)[N+]([O-])=Cc1ccc(S(=O)(=O)[O-])cc1S(=O)(=O)[O-].[Na+].[Na+] [α-(2,4-disulfophenyl)-N-tert-butylnitrone disodium salt]
- Amount of Aldehyde (II) ([1]; 50 mM phosphate, air-filled headspace, fill 10.5 ml, +5° C., 0 months): 0.3 area %
- Amount of Aldehyde (II) ([1]; 50 mM phosphate, air-filled headspace, fill 10.5 ml, +5° C., 3 months): 0.3 area %
- Amount of Aldehyde (II) ([1]; 50 mM phosphate, air-filled headspace, fill 10.5 ml, +5° C., 6 months): 0.5 area %
- Amount of Aldehyde (II) ([1]; 50 mM phosphate, air-filled headspace, fill 10.5 ml, +5° C., 12 months): 0.4 area %
- Amount of Aldehyde (II) ([1]; 50 mM phosphate, air-filled headspace, fill 10.5 ml, +25° C./60% RH, 0 months): 0.3 area %
- Amount of Aldehyde (II) ([1]; 50 mM phosphate, air-filled headspace, fill 10.5 ml, +25° C./60% RH, 3 months): 0.7 area %
- Amount of Aldehyde (II) ([1]; 50 mM phosphate, air-filled headspace, fill 10.5 ml, +25° C./60% RH, 6 months): 1.0 area %
- Amount of Aldehyde (II) ([1]; 50 mM phosphate, air-filled headspace, fill 10.5 ml, +25° C./60% RH, 12 months): 0.7 area %
- Amount of Aldehyde (II) ([1]; pH 8.5, nitrogen-filled headspace, fill 7.7 ml, +5° C., 0 months): 0.2 area %
- Amount of Aldehyde (II) ([1]; pH 8.5, nitrogen-filled headspace, fill 7.7 ml, +5° C., 3 months): 0.2 area %
- Amount of Aldehyde (II) ([1]; pH 8.5, nitrogen-filled headspace, fill 7.7 ml, +5° C., 6 months): 0.2 area %
- Amount of Aldehyde (II) ([1]; pH 8.5, nitrogen-filled headspace, fill 7.7 ml, +5° C., 12 months): 0.3 area %
- Amount of Aldehyde (II) ([1]; pH 8.5, nitrogen-filled headspace, fill 7.7 ml, +25° C./60% RH, 0 months): 0.2 area %
- Amount of Aldehyde (II) ([1]; pH 8.5, nitrogen-filled headspace, fill 7.7 ml, +25° C./60% RH, 3 months): 0.4 area %
- Amount of Aldehyde (II) ([1]; pH 8.5, nitrogen-filled headspace, fill 7.7 ml, +25° C./60% RH, 6 months): 0.3 area %
- Amount of Aldehyde (II) ([1]; pH 8.5, nitrogen-filled headspace, fill 7.7 ml, +25° C./60% RH, 12 months): 0.5 area %
- Photodegradation [2]: no photodegradation; also recorded: no degradation at all
- Final Amount of Aldehyde (II) ([3]; 200 mg/ml): 3.5 Area %
- Initial Amount of Aldehyde (II) ([3]; 200 mg/ml): 1.7 Area %
- Final Amount of Aldehyde (II) ([3]; 300 mg/ml): 3.2 Area %
- Initial Amount of Aldehyde (II) ([3]; 300 mg/ml): 1.7 Area %
- Final Amount of Aldehyde (II) ([3]; 400 mg/ml): 2.9 Area %
- Initial Amount of Aldehyde (II) ([3]; 400 mg/ml): 1.8 Area %
- Amount of Aldehyde (II) ([4]; unbuffered 100 mg/ml, 0 months): 0.2 Area %
- pH ([4]; unbuffered 100 mg/ml, 0 months): 7.4
- Amount of Aldehyde (II) ([4]; unbuffered 100 mg/ml, 1 month): 0.5 Area %
- pH ([4]; unbuffered 100 mg/ml, 1 month): 7.5
- Amount of Aldehyde (II) ([4]; unbuffered 100 mg/ml, 3 months): 1.0 Area %
- pH ([4]; unbuffered 100 mg/ml, 3 months): 7.3
- Amount of Aldehyde (II) ([4]; unbuffered 100 mg/ml, 6 months): 1.6 Area %
- pH ([4]; unbuffered 100 mg/ml, 6 months): 7.1
- Amount of Aldehyde (II) [4, 8]: 1.6 Area %
- pH [4, 8]: 6.9
- Amount of Aldehyde (II) ([4]; unbuffered 200 mg/ml, 0 months): 0.2 Area %
- pH ([4]; unbuffered 200 mg/ml, 0 months): 7.6
- Amount of Aldehyde (II) ([4]; unbuffered 200 mg/ml, 1 month): 0.4 Area %
- pH ([4]; unbuffered 200 mg/ml, 1 month): 7.6
- Amount of Aldehyde (II) ([4]; unbuffered 200 mg/ml, 3 months): 0.6 Area %
- pH ([4]; unbuffered 200 mg/ml, 3 months): 7.4
- Amount of Aldehyde (II) ([4]; unbuffered 200 mg/ml, 6 months): 0.8 Area %
- pH ([4]; unbuffered 200 mg/ml, 6 months): 7.4
- Amount of Aldehyde (II) [4, 9]: 1.1 Area %
- pH [4, 9]: 6.9
- Amount of Aldehyde (II) ([5]; 200 mg/ml, 0 months): 0.1 Area %
- pH ([5]; 200 mg/ml, 0 months): 8.0
- Amount of Aldehyde (II) ([5]; 200 mg/ml, 6 months): 0.4 Area %
- pH ([5]; 200 mg/ml, 6 months): 7.9
- Amount of Aldehyde (II) ([5]; 200 mg/ml, 12 months): 0.6 Area %
- pH ([5]; 200 mg/ml, 12 months): 7.9
- Amount of Aldehyde (II) ([5]; 200 mg/ml, 18 months): 0.7 Area %
- pH ([5]; 200 mg/ml, 18 months): 8.0
- Amount of Aldehyde (II) ([5]; 400 mg/ml, 0 months): 0.1 Area %
- pH ([5]; 400 mg/ml, 0 months): 8.0
- Amount of Aldehyde (II) ([5]; 400 mg/ml, 6 months): 0.3 Area %
- pH ([5]; 400 mg/ml, 6 months): 7.8
- Amount of Aldehyde (II) ([5]; 400 mg/ml, 12 months): 0.4 Area %
- pH ([5]; 400 mg/ml, 12 months): 7.8
- Amount of Aldehyde (II) ([5]; 400 mg/ml, 18 months): 0.4 Area %
- pH ([5]; 400 mg/ml, 18 months): 7.9
- Amount of Aldehyde (II) [6, 10]: 0.8 Area %
- pH [6, 10]: 8.0
- Amount of Aldehyde (II) [6, 11]: 0.9 Area %
- pH [6, 11]: 7.9
- Amount of Aldehyde (II) [6, 12]: 0.9 Area %
- pH [6, 12]: 7.7
- Amount of Aldehyde (II) [6, 13]: 1.0 Area %
- pH [6, 13]: 7.5
- Amount of Aldehyde (II) [6, 14]: 1.1 Area %
- pH [6, 14]: 7.5
- Amount of Aldehyde (II) [6, 15]: 0.9 Area %
- pH [6, 15]: 6.8
- Amount of Aldehyde (II) [6, 16]: 1.1 Area %
- pH [6, 16]: 6.8
- Amount of Aldehyde (II) [6, 17]: 1.2 Area %
- pH [6, 17]: 6.8
- Amount of Aldehyde (II) [6, 18]: 1.6 Area %
- pH [6, 18]: 6.8
- Amount of Aldehyde (II) [6, 19]: 2.0 Area %
- pH [6, 19]: 6.7
- Amount of Aldehyde (II) ([7]; 2.6 mM phosphate, 0 hours): 0.30 Area %
- pH ([7]; 2.6 mM phosphate, 0 hours): 6.50
- Amount of Aldehyde (II) ([7]; 2.6 mM phosphate, 24 hours): 0.44 Area %
- pH ([7]; 2.6 mM phosphate, 24 hours): 6.69
- Amount of Aldehyde (II) ([7]; 2.6 mM phosphate, 48 hours): 0.57 Area %
- pH ([7]; 2.6 mM phosphate, 48 hours): 6.67
- Amount of Aldehyde (II) ([7]; 26 mM phosphate, 0 hours): 0.17 Area %
- pH ([7]; 26 mM phosphate, 0 hours): 7.43
- Amount of Aldehyde (II) ([7]; 26 mM phosphate, 24 hours): 0.20 Area %
- pH ([7]; 26 mM phosphate, 24 hours): 7.39
- Amount of Aldehyde (II) ([7]; 26 mM phosphate, 48 hours): 0.25 Area %
- pH ([7]; 26 mM phosphate, 48 hours): 7.38
- Amount of Aldehyde (II) ([7]; no buffer, 0 hours): 0.25 Area %
- pH ([7]; no buffer, 0 hours): 6.01
- Amount of Aldehyde (II) ([7]; no buffer, 24 hours): 0.68 Area %
- pH ([7]; no buffer, 24 hours): 6.32
- Amount of Aldehyde (II) ([7]; no buffer, 48 hours): 0.89 Area %
- pH ([7]; no buffer, 48 hours): 6.48
